# Measurements as given in patent publication US8772274B1, “Anti-cancer compositions and methods” (The Penn State Research Foundation, priority 2008, dated 2014).
# Where a name gives a salt, the structure may show the parent alone. Read-outs that look alike come from different tables or passages of the source.
# How the values were obtained:
# UACC 903 melanoma cells = test: Apoptosis, Apo-ONE caspase-3/7 assay; assay type: cell-based
# Description: […] Proliferation and apoptosis rates are measured using a BrdU ELISA kit (Roche Applied Sciences, Indianapolis, Ind.) and Apo-ONE Homogenous caspase-3/7 Assay kit (Promega, Madison, Wis.), respectively, (Madhunapantula S V, et al., Cancer Res 2007; 67:3626-36).
# UACC 903 melanoma tumors = test: Tumorigenicity assessment, UACC 903 xenograft, i.p. treatment; assay type: in vivo, nude mice; conditions: day 24; i.p. 0.315 moles (2.5 ppm selenium) Monday, Wednesday, Friday for 3 weeks
# Description: Tumor kinetics are measured by subcutaneous injection of 5×10^6 UACC 903 or 2.5×10^61205 Lu cells in 0.2 ml of DMEM containing 10% FBS above left and right rib cages of 4-6 week old female nude mice (Harlan Sprague Dawley, Indianapolis, Ind.). Six days later, a fully vascularized tumor has developed and mice are randomly placed in control DMSO or experimental (PBIT or PBISe) groups (n=5 animals; 10 tumors total) followed by i.p. treatment with PBIT ([…]) or PBISe ([…]; equivalent to 2.5 ppm selenium per 20 g mouse) on Monday, Wednesday and Friday for 3 weeks. Dimensions of developing tumors and body weight are measured.
# [1] = test system: WM35-GFP and UACC 903-GFP melanoma tumors in reconstructed skin; test: Topical treatment of skin reconstructs containing melanoma cells; assay type: cell-based, human; conditions: 8 days
# Description: Generation of skin containing melanocytic lesions is briefly described. […] Mixture is then aliquoted into 6 or 12 well plates and incubated at 37° C. for 3 hours. […] One milliliter of cell suspension is added to each well on top of the dermal layer. Following two days growth, reconstructed skin is transferred onto wire grids and fed via diffusion from E-media below the platforms.
# Skin reconstructs containing melanoma cells are treated topically with increasing concentrations (5, 10, 15 and 20 μM in 200 μL PBS) of PBIT or PBISe. Eight days later control vehicle PBS treated, PBIT and PBISe exposed skins are fixed in paraformaldehyde and stored in 0.5% EDTA.
# Beginning on day 8 of culture, the reconstructed skins containing melanoma tumors are treated with increasing concentrations of PBISe (5, 10, 15 and 20 μM) or PBIT (15 and 20 μM) in 200 μL of vehicle PBS for 8 days and the size of developing tumors, in terms of area occupied by GFP, is measured using fluorescence microscopy.
# [2] = test system: Caco-2 colon adenocarcinoma cells; test: MTS cell viability assay, Caco-2
# Description: In vitro inhibitory efficacy is measured using 3-(4,5-dimethylthiazol-2-yl)-5-(3-carboxymethoxyphenyl)-2-(4-sulfophenyl)-2H-tetrazolium (MTS) assay (Promega, Madison, Wis.). […] Cells are treated with either vehicle control, PBS, PBIT (40-120 μM) or PBISe (2.4-10 μM) for 72 h. The percentages of viable cells compared to control PBS treated cells are determined using MTS assay and IC50 values calculated using GraphPad Prism version 4.01 (GraphPad software, San Diego, Calif.). An IC50 value for each compound is determined by at least three independent experiments and represented with a standard error.
# The IC50 value is evaluated by treating with increasing concentrations of PBIT, PEIT, PEISe (10-100 μM) or PBISe (1.6-50 μM) for 24-72 hours and the number of viable cell are quantified using MTS (Promega, Wis.).
smiles,measurement,setting,value
"N=C(N)[Se]CCc1ccc(CC[Se]C(=N)N)cc1 [PBISe, s,s′-1,4-phenylene-bis(1,2-ethanediyl)bis-isoselenourea dihydrobromide]",caspase-3/7 activity,"UACC 903 melanoma cells; UACC 903, increasing concentrations up to 10.5 μM, 24 hours, compared to PBIT",elevated
same,cell death at higher doses,UACC 903 melanoma cells; doses higher than 10.5 μM,> 80%
same,"difference in tumor volume compared to control DMSO or PBIT, UACC 903",UACC 903 melanoma tumors,~30%
same,morphology of constituent cells of skin reconstructs,"[1]; 20 uM topical, H&E",no toxicity
same,difference in tumor size compared to vehicle PBS control and PBIT treated skins,"[1]; 15 and 20 μM, topical, area occupied by GFP, WM35 and UACC 903",80-90%
same,increase in potency compared to PBIT,"[2]; Caco-2, 72 h, MTS",25 fold
same,cells killed,"[2]; Caco-2, PBISe at 2-4 μM",> 80%
same,"Fold increase in efficacy (PBIT/PBISe), Caco-2","[2]; ratio of IC50 PBIT/PBISe, Caco-2",~24.7 fold
same,IC50,"[2]; read-out: IC50, Caco-2 colon adenocarcinoma cells, Caco-2, 72 h, MTS",2400 nM
same,IC50,"[2]; read-out: Inhibition Cancer Cells IC50, Caco-2 (Table III), Caco-2 colorectal adenocarcinoma, MTS",2400 ± 430 nM
same,IC50,"[2]; read-out: Inhibition of growth IC50, Caco-2 (Table II), Caco-2, 24-72 hours, MTS",2400 ± 430 nM
